Columns and labels:
[1] = test system: patients experiencing on average at least two nocturnal voids per night; test: Clinical study: reduction in the average number of nocturnal voids (Responder / Non-Responder); format: in vivo, human
Description: A clinical study was performed to evaluate the impact of administering desmopressin in combination with a 5-alpha reductase inhibitor alone or together with an alpha-adrenergic receptor antagonist to reduce the occurrence of nocturnal voiding by a patient. Experimental procedures and results are described below. […] Patients received as a nasal spray either (i) a 1.5 μg dosage of desmopressin or (ii) placebo. The desmopressin nasal spray (or placebo) was administered daily just prior to bedtime for a duration of twelve weeks. In addition, patients previously diagnosed as suffering from benign prostatic hyperplasia (BPH) and receiving a 5-alpha reductase inhibitor alone or together with an alpha-adrenergic receptor antagonist for treatment of BPH continued to receive the 5-alpha reductase inhibitor alone or together with the alpha-adrenergic receptor antagonist at the same dosage and frequency used prior to enrollment in this study. All patients in this study who received a 5-alpha reductase inhibitor alone or together with an alpha-adrenergic receptor antagonist for treatment of their BPH had been receiving the 5-alpha reductase inhibitor alone or together with the alpha-adrenergic receptor antagonist for at least 2 months before enrollment in this study and experienced on average at least two nocturnal voids per night before enrollment in this study. The desmopressin nasal spray was prepared by combining aliquots of an Emulsion Stock Solution and a Buffer Solution as described below. To produce the desmopressin nasal spray, aliquots of the 30 μg/mL solution were filtered to eliminate any bacterial contamination and diluted with an equal volume of emulsion stock solution to produce aseptic, preservative free dose forms comprising 15 μg/mL desmopressin, pH 5.5, containing 2% cyclopentadecanolide. These were bottled in sterile pump spray bottles fitted with a Pfeiffer APF pump sprayers that deliver 100 μL per metered spray (i.e., 1.5 μg desmopressin (i.e., 1500 ng desmopressin) per spray). The liquid contains no detectable microorganisms. Patients recorded the occurrence of nocturnal voids during the study period. Patients were designated to be a “Responder” if after receiving treatment there was a reduction in the average number of nocturnal voids during the treatment period.

[2] = human, in vivo; cited from earlier work
[3] = BPH patients receiving 5-alpha reductase inhibitor alone or together with alpha-adrenergic receptor antagonist, 1.5 μg nasal spray daily, twelve weeks, n = 14
[4] = BPH patients, second component none (no 5-alpha reductase inhibitor or alpha-adrenergic receptor antagonist), 1.5 μg nasal spray daily, twelve weeks, n = 42
[5] = BPH patients, alpha-adrenergic receptor antagonist and 5-alpha reductase inhibitor, 1.5 μg desmopressin nasal spray daily, twelve weeks, n = 14
[6] = BPH patients, second component 5-alpha reductase inhibitor, 1.5 μg desmopressin nasal spray daily prior to bedtime, twelve weeks, n = 14
[7] = male patients without BPH, second component none, 1.5 μg nasal spray daily, twelve weeks, n = 34

SMILES: NC(=O)CC[C@@H]1NC(=O)[C@H](Cc2ccccc2)NC(=O)[C@H](Cc2ccc(O)cc2)NC(=O)CCSSC[C@@H](C(=O)N2CCC[C@H]2C(=O)N[C@H](CCCN=C(N)N)C(=O)NCC(N)=O)NC(=O)[C@H](CC(N)=O)NC1=O [Desmopressin, 1-desamino-8-D-arginine vasopressin]
- Difference in Responder Response Rate Between Desmopressin-treated Patients & Those Receiving Placebo ([1]; BPH patients receiving 5-alpha reductase inhibitor alone or together with alpha-adrenergic receptor antagonist): 40%
- Non-Responder Patients: Total Number of Patients that Received Desmopressin [1, 3]: 6
- Percent Total Non-Responder Patients that Received Desmopressin [1, 3]: 43% (6/14)
- Percent Total Responder Patients that Received Desmopressin (absolute response rate) [1, 3]: 57%
- Responder Patients: Total Number of Patients that Received Desmopressin [1, 3]: 8
- Difference in Responder Response Rate Between Desmopressin-treated Patients & Those Receiving Placebo ([1]; BPH patients receiving 5-alpha reductase inhibitor alone or together with alpha-adrenergic receptor antagonist, listed as desmopressin): 40%
- Difference in Responder Response Rate Between Desmopressin-treated Patients & Those Receiving Placebo ([1]; BPH patients that did not receive a 5-alpha reductase inhibitor or an alpha-adrenergic receptor antagonist): 14%
- Difference in Responder Response Rate Between Desmopressin-treated Patients & Those Receiving Placebo ([1]; BPH patients that did not receive a 5-alpha reductase inhibitor or an alpha-adrenergic receptor antagonist, listed as desmopressin): 14%
- Non-Responder Patients: Number of Patients that Received Desmopressin [1, 4]: 24
- Percent Total Non-Responder Patients that Received Desmopressin [1, 4]: 57%
- Percent Total Responder Patients that Received Desmopressin (absolute response rate) [1, 4]: 43%
- Responder Patients: Number of Patients that Received Desmopressin [1, 4]: 18
- Percent Total Responder Patients that Received Desmopressin (absolute response rate) ([1]; BPH patients, second component none (no 5-alpha reductase inhibitor or alpha-adrenergic receptor antagonist), 1.5 μg nasal spray daily, twelve weeks, n = 42, listed as desmopressin): 43%
- Non-Responder Patients: Number of Patients that Received Desmopressin [1, 5]: 2
- Responder Patients: Number of Patients that Received Desmopressin [1, 5]: 5
- Non-Responder Patients: Number of Patients that Received Desmopressin [1, 6]: 4
- Responder Patients: Number of Patients that Received Desmopressin [1, 6]: 3
- Difference in Responder Response Rate Between Desmopressin-treated Patients & Those Receiving Placebo ([1]; male patients not diagnosed with BPH, not receiving a 5-alpha reductase inhibitor or an alpha-adrenergic receptor antagonist): 18%
- Difference in Responder Response Rate Between Desmopressin-treated Patients & Those Receiving Placebo ([1]; male patients not diagnosed with BPH, not receiving a 5-alpha reductase inhibitor or an alpha-adrenergic receptor antagonist, listed as desmopressin): 18%
- Non-Responder Patients: Number of Patients that Received Desmopressin [1, 7]: 16
- Percent Total Non-Responder Patients that Received Desmopressin [1, 7]: 47%
- Percent Total Responder Patients that Received Desmopressin (absolute response rate) [1, 7]: 53%
- Responder Patients: Number of Patients that Received Desmopressin [1, 7]: 18
- Percent Total Responder Patients that Received Desmopressin (absolute response rate) ([1]; male patients without BPH, second component none, 1.5 μg nasal spray daily, twelve weeks, n = 34, listed as desmopressin): 53%
- half-life (known clearance rate) [2]: 1.5 to 2.0 h

From patent US9925232B2, “Methods and compositions comprising desmopressin in combination with a 5-alpha reductase inhibitor” (Serenity Pharmaceuticals LLC, priority 2013, dated 2018)
